Laboratory results as given in US20260232682A1, “GSPT1 DEGRADER COMPOUNDS” (Captor Therapeutics S.A., priority 2023, published 2026).

What was measured:
KG-1 cells = assay: Cell viability CTG assay, KG-1; assay type: cell-based; conditions: Homo sapiens, 72 hours treatment, read-out: KG-1 Geomean absolute IC50
Description: (§1) The effect of selected compounds of the invention on cell viability in various cell lines was investigated using the Cell Viability—CTG Assay Protocol below.
(§2) Hep3B, Hep3B GSPT1 G575N mut., Kelly, KG-1 and NCI-H929 cells were maintained in respective cell medium (see Table 5, below). Cells were seeded in appropriate density (see Table 6, below) onto 384-white plates (Greiner, cat. no. 781080 or 781098) and incubated overnight (Hep3B, Hep3B GSPT1 G575N, Kelly) or treated with compounds immediately after seeding (KG-1, NCI-H929). Tested compounds and DMSO (vehicle control) were dispensed to the plates using Echo 555 Liquid Handler. 12 data-point compound titration curve with concentrations ranging from 50 μM to 1 nM was used. Final DMSO concentration was kept constant at 0.25% v/v across the assay plate. After 72 h incubation (37° C., 5% CO2), cell viability was assessed using CellTiter-Glo® assay kit (Promega, cat. no G7573). Luminescence was measured using CLARIOstar multimode plate reader (BMG LABTECH). The raw data (the relative luminescence unit values, RLU) were uploaded under the relevant protocol and analysed in CDDVault data management platform. Luminescence (RLU) values were normalized to the controls, and reported absolute IC50 values were calculated in CDDVault using non-linear regression and appropriate equations.

Kelly cells = assay: Cell viability CTG assay, Kelly; assay type: cell-based; conditions: 72 hours treatment, read-out: Kelly Geomean absolute IC50
Description: as §1, §2

NCI-H929 cells = assay: Cell viability CTG assay, NCI-H929; assay type: cell-based; conditions: Homo sapiens, 72 hours treatment, read-out: NCI-H929 Geomean absolute IC50
Description: as §1, §2

Hep3B cells = assay: Cell viability CTG assay, Hep3B; assay type: cell-based; conditions: Homo sapiens, 72 hours treatment, read-out: Hep3B Geomean absolute IC50
Description: as §1, §2

[1] = tested on: Hep3B GSPT1 G575N mut. cells; assay: Cell viability CTG assay, Hep3B GSPT1 G575N mut.; assay type: cell-based; conditions: Homo sapiens, 72 hours treatment, read-out: Hep3B GSPT1 G575N Geomean absolute IC50
Description: as §1, §2

[2] = Chemical stability in MV-4-11 medium; conditions: 37° C.
Description: Next, 500 μL of each solution was transferred to the 96-deep-well plate. Three replicates for each compound were performed. Plate was afterwards incubated at 37° C. with shaking (220 rpm). 50 μL of sample were withdrawn for the each timepoint (0, 1, 3, 6, 24, 48, 72, and 168 hours) and immediately mixed with 50 μL of acetonitrile. Next, samples were centrifuged at 3900 rpm, 10° C. for 20 minutes. 40 μL of supernatant was diluted with 120 μL of acetonitrile containing internal standard (IS) (10 μM), mixed, and analyzed by LC-MS/MS.
Thermo Fisher Scientific Altis+ coupled with a Vanquish system were used for UHPLC-MS/MS analysis. Analytes were separated on a Kinetex XB-C18 2.6 μm, 50×2.1 mm column, using gradient of water with 0.1% (v/v) formic acid (solvent A) and acetonitrile with 0.1% (v/v) formic acid (solvent B): 0.0 min 5% B, 0.5 min 5% B, 1.0 min 70% B, 3.0 min 95% B, 3.5 min 95% B, 3.7 min 5% B, 5 min 5% B. The mobile phase flow rate was set to 0.3 mL/min and the column was kept in 40° C. 1 μL of samples were injected. The MS/MS analysis was performed using SRM mode in positive ionization. Source parameters were set as follow: Ion Source Type H-ESI, Spray Voltage 3800 V, Sheath Gas 50 Arb, Aux Gas 10 Arb, Sweep Gas 1 Arb, Ion Transfer Tube Temp 325° C., Vaporizer Temp 350° C., Collision Gas Pressure 1.5 mTorr, Q1/Q3 Resolution (FWHM) 0.7. Three transitions were monitored for each analyte and for the internal standard:
Quantitation was based on the peak area ratio between the test compound and IS. The amount of compound remaining in the sample was calculated as follow:
The slope of logarithmic curve of percent remaining versus time has been used for calculation of half-life (t_half). First, the elimination constant (k) was calculated using the equation:
Next, half-life (t_half) was calculated using equation:

Row | IC50 (NCI-H929 cells) [nM] | IC50 (Hep3B cells) [nM] | IC50 [1] [nM] | % remaining at 24 hrs ([2]; concentration 1 μM) | t_half [hours] ([2]; concentration 1 μM) | % remaining at 24 hrs ([2]; concentration 10 μM) | t_half [hours] ([2]; concentration 10 μM) | Structure (SMILES) | IC50 (KG-1 cells) [nM] | IC50 (Kelly cells) [nM]
1 | > 5000 | > 5000 | > 5000 | – | – | – | – | Cc1ccc(NC(=S)NCc2ccc3cc(C4CCC(=O)NC4=O)c(C)nc3c2)cc1Cl (stereo not shown) [Compound 2, 1-(3-chloro-4-methylphenyl)-3-((3-(2,6-dioxopiperidin-3-yl)-2-methylquinolin-7-yl)methyl)thiourea] | 1000 to 5000 | 1000 to 5000
2 | ≤ 100 | ≤ 100 | > 5000 | a (a≥50%) | A (A≥15 hrs) | b (25%≤b<50%) | A (A≥15 hrs) | Cc1ccc(NC(=O)OCc2ccc3cc(C4CCC(=O)NC4=O)c(C)nc3c2)cc1Cl (stereo not shown) [Compound 4, (3-(2,6-dioxopiperidin-3-yl)-2-methylquinolin-7-yl)methyl (3-chloro-4-methylphenyl)carbamate] | ≤ 100 | ≤ 100
3 | ≤ 100 | ≤ 100 | > 5000 | – | – | – | – | Cc1ccc(NC(=O)OCc2ccc3nc(C)c(C4CCC(=O)NC4=O)cc3c2)cc1Cl (stereo not shown) [Compound 5, (3-(2,6-dioxopiperidin-3-yl)-2-methylquinolin-6-yl)methyl (3-chloro-4-methylphenyl)carbamate] | ≤ 100 | ≤ 100
